In test [1] the test system is MEK1/2 phosphorylation in human colon cancer cell HT-29. The experiment in a line: Colon cancer cell HT-29 intracellular MEK phosphorylation inhibitory activity in vitro. The test is classed as cell-based. The settings on record: HT-29 cells; for IC50: 2 hrs treatment, phosphorylated MEK1/2 Western blot; for inhibition at 0.5 µM: MEK1/2 protein phosphorylation, compound 0.5 μM, read-out: Inhibitory rate (%) at 0.5 μM. As for the experimental part:
500 μL of a cell suspension of human colon cancer cell HT-29 (purchased from American Type Culture Collection (ATCC)) was plated in a 48-well plate (100,000 cells/well), and the cells were cultured overnight at 37° C. in the presence of 5% CO2, treated with a test compound (250 μL/well) diluted in 3-fold dilution series and cultured for 2 hrs. After 2 hrs, the culture medium containing the test compound was removed, and the cells were lysed with SDS sample buffer (100 μL/well) and heated at 95° C. for 5 min. Thereafter, the cells lysed with SDS sample buffer were applied to SDS-PAGE, and the protein was transferred onto Sequi-Blot™ PVDF Membrane (Bio-Rad) by the Western blot method. The PDVF membrane was blocked with a Block-Ace solution (Snow Brand Milk Products Co., Ltd) dissolved in phosphate buffered saline (MP Biochemicals) to 5% W/V, and reacted overnight with anti-phosphorylated MEK1/2 (Ser217/221) (Cell signaling #9121) diluted 1000-fold with phosphate buffered saline containing 0.4% Block-Ace. The membrane was washed with phosphate buffered saline containing 0.1% Tween 20 (Wako Pure Chemical Industries, Ltd.), and reacted at room temperature for 1 hr with HRP labeled rabbit IgG polyclonal antibody (Cell signaling #7074) diluted 1000-fold with phosphate buffered saline containing 0.4% Block-Ace. The membrane was washed in the same manner as above, chemical luminescence of a phosphorylated MEK1/2 protein labeled with the antibody, which was caused by ECL-plus Detection Reagent (Amersham bioscience), was detected by Luminescent Image Analyzer LAS-1000 (FUJIFILM Corporation). Taking the luminescence of the control group free of the test compound as 100%, the concentration (IC50 value) of the compound necessary for inhibiting the residual luminescence to 50% of the control group was calculated. In addition, MEK1/2 protein phosphorylation inhibitory rate (%) of the test compound at compound concentration 0.5 μM was calculated by the following formula. The results are shown in Table 2-B. Inhibitory rate (%)=(1−(luminescence of test compound−blank)÷(luminescence of control group−blank))×100
For orientation: In western blotting, separated proteins are transferred to a membrane and probed.

The test system of test [2] is phosphorylated ERK1/2 in A-375 tumor. The experiment in a line: Intratumor phosphorylated ERK inhibitory activity in malignant melanoma cell A-375 cancer-bearing rat. The settings on record: phosphorylated ERK1/2 in A-375 tumor of nude rat, 25 mg/kg oral, 4 hrs after administration. Type of test: in vivo. As for the experimental part: Human malignant melanoma cell A-375 (purchased from ATCC) was transplanted into 5-week-old nude rat (F344/N Jcl-mu/mu female (CLEA Japan, Inc.)) at 1.0×10^7 cells by subcutaneous injection. After 2-5 weeks from the transplantation, a test compound dissolved in 5% DMSO, 10% Cremophor, 20% PEG-400 and 65% distilled water was orally administered to rats having an engrafted tumor with a tumor volume of 200-800 mm^3 at a dose of 25 mg/kg body weight. After 4 hrs from the administration of the test compound, the tumor was collected under ether anesthesia and the tumor was homogenized in RIPA buffer (1% NP-40, 0.5% sodium deoxycholate, 1% SDS, 97.5% DPBS (GIBCO) with Protease Inhibitor Cocktail Set 3 (calbiochem) and Phosphatase Inhibitor Cocktail 2 (Sigma)). The protein in the tumor lysate was quantified using BCA Protein assay kit (Thermo), and the protein amount in the tumor lysate was adjusted to 1.25 μg/μL. 2×SDS sample buffer was added to the above-mentioned protein solution and the mixture was treated at 95° C. for 5 min.
Thereafter, SDS-PAGE was performed and the protein was transferred onto Sequi-Blot PVDF Membrane (Bio-Rad) by the Western blot method. The membrane was blocked with 5% (w/v) Block-Ace solution dissolved in phosphate buffered saline and reacted overnight with anti-phosphorylated ERK1/2 (Thr202/Tyr204) (Cell Signaling #9101) diluted 1000-fold with phosphate buffered saline containing 0.4% (w/v) Block-Ace. The membrane was washed with phosphate buffered saline containing 0.1% Tween20 (Wako Pure Chemical Industries, Ltd.), and reacted with HRP-labeled rabbit IgG polyclonal antibody (Cell Signaling #7074) diluted 1000-fold with phosphate buffered saline containing 0.4% Block-Ace for 1 hr at room temperature. […]
(Amersham Biosciences), and detected with luminoimage analyzer LAS-1000 (Fuji Film). The phosphorylated ERK1/2 protein inhibitory rate (%) of the test compound was calculated by the following formula. Inhibitory rate (%)=(1−(luminescence of test compound−blank)÷(luminescence of control group−blank))×100

Test [3] deals with human colon cancer cell HT-29. The experiment in a line: Colon cancer cell HT-29 growth suppressive activity in vitro. Type of test: cell-based. As for the experimental part: 100 μL of a cell suspension (3,000 cells/well) of human colon cancer cell HT-29 (purchased from ATCC) was plated in a 96-well plate, and the cells were cultured at 37° C. in the presence of 5% CO2. The next day, 100 μL of culture medium containing each test compound diluted in 2-fold dilution was added, and the cells were cultured for 3 days. The culture medium containing the test compound was removed, and the cells were washed with phosphate buffered saline (MP Biochemicals). A 50% trichloroacetic acid solution was added to the final concentration of 10% (v/v), and the mixture was stood overnight at 4° C., whereby the cells were fixed to the plate. Then, a dye SRB 0.4% (w/v) solution (dissolved in 1% acetic acid) was added at 50 μl/well, whereby the cell protein was fixed and stained (Skehan et al., Journal Of National Cancer Institute, vol. 82, pp. 1107-1112, 1990). The cells were washed 3 times with 1% acetic acid solution (200 μL/well), and 100 μL of an extract (10 mM Tris buffer) was added to extract the dye. The absorbance at an absorption wavelength 550 nm was measured, and cell amount was measured as a protein amount. Taking the protein amount of the control group free of the test compound solution as 100%, the proportion of the residual protein amount of each treatment group was determined and the concentration of the compound necessary for suppressing the residual cell amount to 50% of the control (IC50 value) was calculated. In addition, cell proliferation inhibitory rate (%) of the test compound at compound concentration 10 μM was calculated by the following formula. The results are shown in Table 3-B. Inhibitory rate (%)=(1−(absorbance of test compound−blank)÷(absorbance of control group−blank))×100

Three compounds from patent US8497274B2, “Heterocyclic compound and use thereof” (Takeda Pharmaceutical Company Limited, priority 2008, dated 2013) can be followed below.

The IC50 is the concentration that gives 50% inhibition.

As for `CC(C)(C#N)c1cccc(C(=O)Nc2cccc(Oc3ccc4nc(NC(=O)C5CC5)sc4c3C#N)c2)c1Cl` [Example 3, 2-chloro-N-[3-({7-cyano-2-[(cyclopropylcarbonyl)amino]-1,3-benzothiazol-6-yl}oxy)phenyl]-3-(1-cyano-1-methylethyl)benzamide], in test [1], the IC50 is under 300 nM and the inhibition at 0.5 µM amounted to 86%. The “Inhibitory rate (%)” value in test [2] worked out at 71%.
With `N#Cc1c(Oc2cccc(NC(=O)Cc3cccc(C(F)(F)F)c3)c2)ccc2nc(NC(=O)C3CC3)sc12` [Example 50, N-{7-cyano-6-[3-({[3-(trifluoromethyl)phenyl]acetyl}amino)phenoxy]-1,3-benzothiazol-2-yl}cyclopropanecarboxamide], the half-inhibitory concentration (IC50) in test [3] (72 h, HT-29 cells, 3 days culture, SRB staining) is under 500 nM. In test [3] (HT-29 cell proliferation, compound 10 μM, read-out: Inhibitory rate (%) at 10 μM), the inhibition at 10 µM came to 91%. The “Inhibitory rate (%)” value in test [2] was determined as 76%.
Regarding `N#Cc1c(Oc2ccc(F)c(NC(=O)Cc3cccc(C(F)(F)F)c3)c2)ccc2nc(NC(=O)C3CC3)sc12` [Example 53, N-{7-cyano-6-[4-fluoro-3-({[3-(trifluoromethyl)phenyl]acetyl}amino)phenoxy]-1,3-benzothiazol-2-yl}cyclopropanecarboxamide], in test [1], the IC50 is under 300 nM and the inhibition at 0.5 µM worked out at 79%. Further, in test [2], the “Inhibitory rate (%)” value is on record as 88%.
